Values of other authors, collected in US20250144118A1, “MIFEPRISTONE ORAL FORM FOR ITS USE IN CERVIX RIPENING AND LABOUR INDUCTION” (NORDIC GROUP B.V., priority 2020, published 2025).

Columns and labels:
[1] = tested on: cervix of pregnant women beyond 41 weeks' gestation; settings: 200 mg mifepristone orally, findings not statistically significant
[2] = tested on: cervix of women in full-term pregnancy; settings: clinical trial
[3] = tested on: cervix of women in term pregnancies; settings: 50, 100, 200, 400 and 600 mg of mifepristone; regardless of the dose

SMILES: CC#C[C@]1(O)CC[C@H]2[C@@H]3CCC4=CC(=O)CCC4=C3[C@@H](c3ccc(N(C)C)cc3)C[C@@]21C [mifepristone, Mifepristone]
- Bishop score after 24 hours vs. placebo [1]: improve the Bishop score after 24 hours vs. placebo
- use of prostaglandin ([1]; vs. placebo): reduce the use of prostaglandin
- induction of cervical ripening and labour [2]: efficient on inducing cervical ripening and labour
- efficiency vs placebo [3]: no more effective than placebo
